# Measurements from patent US4281654A, “Drug delivery system for controlled ocular therapy” (ALZA Corporation, priority 1980, dated 1981).
# Counter-ions that a name gives are not always drawn.
# Tests used:
# [1] = tested on: open-angle glaucoma, intraocular pressure; assay: Clinical study of mean intraocular pressure (IOP) in patients diagnosed as having open-angle glaucoma; assay type: in vivo, patients (human); details: 12 patients
# Excerpt: The present invention provides an ocular therapeutic system for administering a therapeutically effective amount of a beta-adrenergic blocking drug, and a therapeutically effective amount of a parasympathomimetic drug concurrently from a single ocular dosage form that can lead to synergestic clinical results. The clinical study that follows presents the results obtained by the simultaneous administration to the eye of a beta-adrenergic blocking drug and a parasympathomimetic drug to the eyes of patients.
# In a clinical study using 12 patients diagnosed as having open-angle glaucoma, the mean intraocular pressures, IOP's, were measured with each patient under the following therapies: (a) S-(-)-1-(tert-butylamino)-3-[(4-morpholino-1,2,5-thiadiazol-3-yl)oxy-2-propanol maleate, timolol maleate, 0.25% ophthalmic solution instilled as drop alone; (b) timolol maleate, 0.50% ophthalmic solution instilled as drop alone; (c) (3s-cis)-3-ethyldihydro-4-[(1-methyl-1H-imidazol-5-yl) methyl]-2(3H)-furanone, pilocarpine, administered at a rate of 40 micrograms per hour from an ocular therapeutic system placed in the conjunctival sac; (d) therapy comprising 0.25 timolol maleate instilled with concomitant release of 40 micrograms of pilocarpine from an ocular system; and (e) therapy comprising 0.50 timolol maleate instilled with concomitant release of 40 mcg (micrograms) of pilocarpine from an ocular system. In the table, the results of (a) and (c) administered alone are additive, while the results are synergistic for (d) wherein the two drugs were administered concomitantly to the eye. In the table, the results of (b) and (c) administered alone are additive, where the results are synergistic for (e) wherein the two drugs were administered concomitantly to the eye.
# [2] = Osmotic pressure of the solute; assay type: physicochemical
# Excerpt: The osmotic pressure, ATM, of the above solutes can be measured in a commercially available osmometer that measures the vapor pressure difference between pure water and the solution containing a solute to be analyzed, and according to standard thermodynamic principles, the vapor pressure ratio is converted into osmotic pressure difference. An osmometer that can be used for the present measurements is identified as Model 302B Vapor Pressure Osmometer, manufactured by Hewlett Packard Company, Avondale, Pa.
# [3] = Solubility in distilled water; assay type: physicochemical
compound,measurement,setting,value
"CC[C@@H]1C(=O)OC[C@@H]1Cc1cncn1C (relative stereo) [pilocarpine, (3s-cis)-3-ethyldihydro-4-[(1-methyl-1H-imidazol-5-yl)methyl]-2(3H)-furanone]",Mean IOP Reduction,[1]; (c) pilocarpine 40 mcg/hr alone from ocular therapeutic system in conjunctival sac,1.6 mm
CC[C@@H]1C(=O)OC[C@@H]1Cc1cncn1C [(3S-cis)-ethyldihydro-4-[(1-methyl-1H-imidazol-5-yl)methyl]-2(3H)-furanonenitrate],osmotic pressure,[2],37 atm
same,solubility,[3]; water,270 mg/mL
COCCc1ccc(OCC(O)CNC(C)C)cc1 (racemic) [(±)-1-[4-(2-methoxyethyl)-phenoxy]-3-[(1-methylethyl)amino]-2-propanol tratrate],osmotic pressure,[2],210 atm
same,solubility,[3]; 25° C,860 mg/mL
"CC(C)(C)NC[C@H](O)COc1nsnc1N1CCOCC1 [timolol, S-(-)-1-(tert-butylamino)-3-[(4-morpholino-1,2,5-thiadiazol-3-yl)oxy-2-propanol maleate]",Mean IOP Reduction,[1]; (a) timolol maleate 0.25% ophthalmic solution instilled as drop alone,1.4 mm
same,Mean IOP Reduction,[1]; (b) timolol maleate 0.50% ophthalmic solution instilled as drop alone,2.4 mm
